Columns and labels:
clonal stem cells (AP14) = assay: BrdU labeling of ACSC cultures during RA treatment; assay type: cell-based, rat
Protocol: Cell Culture. For proliferating conditions, clonal stem cells (AP14) were cultured in Dulbecco's Modified Eagles Medium/Ham's F12 (DMEM/F12, 1:1) containing N2 supplement (Gibco BRL, Gaithersburg, Md.) and 20 ng/ml rhFGF-2 (provided by A. Baird, Prizm Pharmaceuticals Inc., La Jolla, Calif.). Culture dishes (Becton Dickinsin Labware, Lincoln Park, N.J.) were coated with polyomithine and mouse laminin as previously described by Ray, et al., Proliferation, differentiation and long-term culture of primary hippocampal neurons, Proc Natl Acad Sci USA 90:3602-3606 (1993). For differentiation experiments, cells were plated into polyornithine/laminin coated glass chamber slides (Nunc, Naperville, Ill.) at a density of 2.5—103 per cm2. The cells were incubated for 24 hrs in normal N2 medium containing 20 ng/ml FGF-2, and then the medium was replaced by N2 medium containing 0.5% […] (FBS) and 0.01% DMSO (control solvent) or […] all-trans retinoic acid (Sigma, St. Louis, Mo.). For further differentiation, the medium was replaced by N2 medium containing 0.5% FBS and one of the following: sterile water (control solvent), mouse 2.55 NGF (50 ng/ml, Boehringer Mannheim, Indianapolis, Ind.), rhBDNF (20 ng/ml, Alomone Labs, Jerusalem, Israel), rhNT-3 (40 ng/ml, Genentech, South San Francisco, Calif.). The medium was replaced every two days. For inhibition of the tyrosine kinase activity of the Trk receptors, K-252a (100 nM, Calbiochem, San Diego, Calif.) was added to the medium.
BrdU Labeling and Visualization. Cells plated as described above were treated with BrdU ([…], Sigma) for 24 hrs before fixation. Then the cells were fixed with tris-buffered 4% paraformaldehyde for 15 min. incubated with tris-buffered 0.6% H2O2 for 30 min, and treated with 50% formamide/2×SSC for 2 hrs followed by a 30-min incubation in 2N HCl, and a neutralization in 0.1M borate (Na2B4O7) for 10 min. Cells were incubated with a-BrdU monoclonal antibody (1:400, Boehringer Mannheim) overnight at 4° C., and incubated with biotinylated horse anti-mouse secondary antibody (1:80, Jackson Immunoresearch, West Grove, Pa.) for 1 hr. Reactive cells were visualized with the avidin/biotin-peroxidase system (Vectastain Elite, Vector Laboratories, Burlingame, Calif.) and diaminobenzidine.
Upregulation of p21 was accompanied by a decrease in the number of dividing cells as evidenced by BrdU incorporation. Cultures were treated with RA for 2, 4, or 6 days and then pulsed with […] bromodeoxyuridine (BrdU) for 24 hrs on the last day of RA treatment. Cells were then fixed and processed for BrdU immunocytochemistry. In the presence of RA, there was a dramatic change in cell morphology, and a gradual decrease in the total number and proportion of BrdU-positive cells. Within 6 days of RA treatment, most of the phase-bright cells extended elaborate processes and only 29% of the cells were BrdU-positive, whereas in the serum-alone control treatment most of the cells continued to proliferate and retained rudimentary process morphology. In proliferative FGF-2-stimulated controls, more than 95% of the cells were labeled every 24 hrs.
Although proliferation decreased in response to RA, it is possible that the few remaining proliferating cells were contributing to the increase in neurons observed following RA treatment. To determine if RA induced a selective expansion of neuronal precursors, parallel cultures were treated with RA for 6 days followed by an additional 6 days in 0.5% serum alone. One set of cultures was fixed on days 2, 4, 6, 8, 10, and 12 and stained with 4,6-diamidino-2-phenylindole (DAPI) and the total number of nuclei was counted. Additional cultures were pulsed with BrdU for 72 hrs on days 0-3, 3-6, 6-9 or 9-12. The cultures were then fixed on day 12 and evaluated for the proportion of Map2ab-IR cells that had incorporated BrdU. […]

[1] = system: optic nerve low-buoyancy cells; assay: Neuron generation from optic nerve low-buoyancy cells; assay type: cell-based, rat; conditions: 14 days high FGF-2, then 14 days differentiation; mean +/- s.e.m., n=5
From the text: Tissue dissection: Three areas were dissected from adult rat brains as follows. Rats (170-190 g Fisher 344 males or females, Harlan) were deeply anesthetized with a mixture of ketamine, xylazine, and acepromazine. Animals were decapitated and whole brains removed. First, ˜1.5 mm of each optic nerve were harvested rostral to, but not including, the optic chiasma. The brain was then bisected longitudinally and each hippocampal lobe separated from the overlaying cortical white matter using the natural separation line along the alveus hippocampus. The white matter of the fimbria and subiculum was removed as much as possible. Some white matter remained. Finally, a 1.5 mm wide cortical ribbon containing parietal and frontal segments was dissected longitudinally, proximal to the central fissure. The pial and callosal surfaces were trimmed from each cortical ribbon to remove a majority of the meninges and white matter. […]
To determine if there were progenitors in the optic nerve with a latent ability to generate neurons, optic nerve was harvested, dissociated and fractioned. […] On day 28, cultures were calculated for the presence of neurons (β Tubulin) and those neurons present were scored for BrdU-immunoreactivity. Although many glia rapidly differentiated in the primary culture, clusters of proliferative precursor-like calls were readily detected. […]

With “FGF-2: basic fibroblast growth factor, human recombinant, prepared in E. coli” the “cells labeled every 24 hrs (BrdU)” value (clonal stem cells (AP14); proliferative FGF-2-stimulated controls) was “more than 95%” and the “β Tubulin-positive neurons, of the total population” value [1] was 0.8% +/− 0.3.

In the case of `CC1=C(/C=C/C(C)=C/C=C/C(C)=C/C(=O)O)C(C)(C)CCC1` [RA, all-trans retinoic acid], the “Map2ab-IR neurons that divided (BrdU)” value (clonal stem cells (AP14); after 6 days of RA treatment) is reported as < 0.5%, the “Map2ab-IR cells that divided (BrdU)” value (clonal stem cells (AP14); days 3-6 of RA treatment) is reported as “Less than 5%” and the “neurons labeled with BrdU” value (clonal stem cells (AP14); first 24 hours upon application of RA) is reported as 19 +/− 3%. The “neurons labeled with BrdU” value (clonal stem cells (AP14); second day following RA treatment) was 3 +/− 1%, the “Map2ab-IR cells that divided (BrdU)” value (clonal stem cells (AP14); three days immediately following start of RA treatment, 72 hr pulse) was “Less than one third” and the BrdU-positive cells (clonal stem cells (AP14); within 6 days of RA treatment, 24 hr BrdU pulse) was 29%.

Source: patent US6767738B1, “Method of isolating adult mammalian CNS-derived progenitor stem cells using density gradient centrifugation” (The Salk Institute for Biological Studies, priority 1999, dated 2004)
